The values that follow come from PubChem BioAssay (NCI).

Among the test systems are 786-0 renal; MALME-3M melanoma; UO-31 renal; HOP-62 NSCLC; RXF 393 renal; SW-620 colon; HL-60(TB) leukemia; K-562 leukemia; NCI-H460 lung; OVCAR-4 ovarian; ACHN renal; OVCAR-3 ovarian; HCT-116 colon; UACC-257 melanoma; MCF7 breast; NCI/ADR-RES ovarian; MDA-MB-231 breast; T-47D breast; DU-145 prostate.
Holding throughout (assay): NCI-60 cell line screen, 48 h

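Compound exposure: 48 hours, 5 concentrations, 96-well plates. Definition used: TGI = concentration required for complete inhibition of growth.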

Regarding `Oc1ccc(O)c(-n2cccn2)c1`, the TGI was over 100 µM in the test with 786-0 renal; over 100 µM with MALME-3M melanoma; over 100 µM with UO-31 renal; over 100 µM in the test on HOP-62 NSCLC; over 100 µM in the test with RXF 393 renal; 73.7 µM with SW-620 colon. In addition, the TGI in the test with HL-60(TB) leukemia was 44.8 µM; with K-562 leukemia it was 64.3 µM; in the test with NCI-H460 lung it was over 100 µM; in the test on OVCAR-4 ovarian it was over 100 µM; in the test with ACHN renal, over 100 µM.

Consider `CCCCN(C)CC(C(C)=O)C(c1ccccc1)c1c(O)c2ccccc2oc1=O` (centres undefined), for which the TGI in the test on 786-0 renal, with MALME-3M melanoma, in the test on UO-31 renal, with HOP-62 NSCLC, in the test on RXF 393 renal and with OVCAR-3 ovarian was over 100 µM in each case. In addition, the TGI with SW-620 colon, in the test with HL-60(TB) leukemia, with HCT-116 colon, in the test with UACC-257 melanoma, in the test with K-562 leukemia and with NCI-H460 lung was over 100 µM in each case. The TGI in the test with OVCAR-4 ovarian and in the test on ACHN renal was over 100 µM throughout.

Turning to `NC1=C(O)/C(=N/NS(=O)(=O)c2ccccc2)C(c2ccc3c(c2)OCO3)O1` (centres undefined), the TGI with 786-0 renal, with MALME-3M melanoma, with UO-31 renal, in the test with HOP-62 NSCLC, in the test with RXF 393 renal and in the test on OVCAR-3 ovarian was over 100 µM throughout. Also, the TGI in the test with SW-620 colon, in the test with HL-60(TB) leukemia, in the test on HCT-116 colon, with UACC-257 melanoma, with K-562 leukemia and in the test with NCI-H460 lung was over 100 µM in each case. The TGI in the test with OVCAR-4 ovarian and in the test on ACHN renal was over 100 µM each time.

Take `CS(=O)(=O)c1ccc(C(=O)O[C@@H]2C(=O)N3CC[C@H]4OC(O)[C@@H]2[C@H]43)cc1` (some centres undefined): the TGI in the test with 786-0 renal, in the test with UO-31 renal, in the test with MCF7 breast, in the test with HOP-62 NSCLC, in the test on NCI/ADR-RES ovarian and in the test with RXF 393 renal was over 100 µM throughout. Further, the TGI with MDA-MB-231 breast, in the test with OVCAR-3 ovarian, in the test on SW-620 colon, in the test with T-47D breast, in the test on HCT-116 colon and with UACC-257 melanoma was over 100 µM each time. Further, the TGI in the test with DU-145 prostate, in the test with K-562 leukemia, with NCI-H460 lung, with OVCAR-4 ovarian and in the test on ACHN renal was over 100 µM in each case.

As for `CC(C)(C)OC(=O)NC(Cc1ccccc1)C(=S)N1CCCC1` (centres undefined), the TGI with 786-0 renal is over 100 µM; with MALME-3M melanoma, over 100 µM; with UO-31 renal it was over 100 µM; in the test with HOP-62 NSCLC it was 91 µM; in the test with RXF 393 renal, over 100 µM; in the test with OVCAR-3 ovarian it was over 100 µM. In addition, the TGI in the test with SW-620 colon, with HL-60(TB) leukemia, in the test with HCT-116 colon, in the test on UACC-257 melanoma, with K-562 leukemia and in the test with NCI-H460 lung was over 100 µM throughout. The TGI in the test with OVCAR-4 ovarian and with ACHN renal was over 100 µM throughout.

In the case of `C=CCC1(CN(C)C)CC/C(=C\c2cc(OC)c(OC)c(OC)c2)C1=O` (centres undefined), the TGI in the test on 786-0 renal was 39.3 µM; with MALME-3M melanoma, over 100 µM; in the test on UO-31 renal, 77 µM; in the test with HOP-62 NSCLC it was over 100 µM; in the test with RXF 393 renal it was 37.3 µM; in the test on OVCAR-3 ovarian, 69.2 µM. In addition, the TGI came to 33.6 µM with SW-620 colon; 20.6 µM with HL-60(TB) leukemia; 31.3 µM with HCT-116 colon; 58.3 µM in the test on UACC-257 melanoma; 54.1 µM with K-562 leukemia; 36.9 µM with NCI-H460 lung. Also, the figures for the TGI with OVCAR-4 ovarian and in the test with ACHN renal were 50.4 µM and 70.8 µM, respectively.

`Cc1ccc([N+](=O)[O-])cc1NC(=O)C(=O)Cc1nc2ccc(C(=O)c3ccccc3)cc2[nH]c1=O`: the TGI in the test on 786-0 renal, with MALME-3M melanoma, in the test on UO-31 renal, in the test on HOP-62 NSCLC, in the test on RXF 393 renal and in the test with OVCAR-3 ovarian was over 100 µM throughout. The TGI in the test with SW-620 colon, in the test on HL-60(TB) leukemia, in the test with HCT-116 colon, in the test with UACC-257 melanoma, with NCI-H460 lung and in the test with OVCAR-4 ovarian was over 100 µM throughout. In the test on ACHN renal, the TGI was over 100 µM.

With `[N-]=[N+]=C1C(=O)C2CC3CC1CC2C3` (centres undefined), the TGI with 786-0 renal, in the test with MALME-3M melanoma, in the test on UO-31 renal, with HOP-62 NSCLC, in the test on RXF 393 renal and in the test on OVCAR-3 ovarian was over 100 µM throughout. The TGI in the test with SW-620 colon, with HL-60(TB) leukemia, with HCT-116 colon, in the test on UACC-257 melanoma, in the test on K-562 leukemia and with NCI-H460 lung was over 100 µM each time. In addition, the TGI with OVCAR-4 ovarian and with ACHN renal was over 100 µM in each case.

For the molecule `CSc1c(C(N)=S)c(N)nn1-c1ccccc1`, the TGI in the test on 786-0 renal, with MALME-3M melanoma, in the test with UO-31 renal, in the test with MCF7 breast, with NCI/ADR-RES ovarian and in the test with RXF 393 renal was over 100 µM each time. Also, the TGI in the test on MDA-MB-231 breast, in the test with OVCAR-3 ovarian, in the test on SW-620 colon, in the test on T-47D breast, in the test with HL-60(TB) leukemia and with HCT-116 colon was over 100 µM throughout. Also, the TGI with UACC-257 melanoma, in the test with DU-145 prostate, in the test on K-562 leukemia, in the test with NCI-H460 lung and in the test on OVCAR-4 ovarian was over 100 µM each time.

Turning to `CC12CP(=O)(O)CC1C2(Cl)Cl` (centres undefined), the TGI in the test on 786-0 renal, in the test with MALME-3M melanoma, with UO-31 renal, with MCF7 breast, with HOP-62 NSCLC and in the test on NCI/ADR-RES ovarian was over 100 µM throughout. Moreover, the TGI with RXF 393 renal, with MDA-MB-231 breast, with OVCAR-3 ovarian, with SW-620 colon, with T-47D breast and in the test with HL-60(TB) leukemia was over 100 µM throughout. In addition, the TGI in the test on HCT-116 colon, in the test with UACC-257 melanoma, in the test on DU-145 prostate, with K-562 leukemia, with NCI-H460 lung and in the test with OVCAR-4 ovarian was over 100 µM throughout. Further, in the test on ACHN renal, the TGI is over 100 µM.

In the case of `CSc1nc2nccnc2c(=O)[nH]1`, the TGI with 786-0 renal, in the test with MALME-3M melanoma, with UO-31 renal, in the test on HOP-62 NSCLC, with RXF 393 renal and in the test on SW-620 colon was over 100 µM throughout. Besides, the TGI in the test on HL-60(TB) leukemia, with HCT-116 colon, in the test with UACC-257 melanoma, in the test on K-562 leukemia, with NCI-H460 lung and in the test on OVCAR-4 ovarian was over 100 µM in each case. Further, the TGI in the test with ACHN renal is over 100 µM.

As to `COC1CC(O[C@H]2CC[C@@]3(C)C(=CCC4(O)C3CCC35C(=O)OC6(C)O[C@@]43CCC65)C2)OC(C)C1O` (some centres undefined), the TGI in the test with 786-0 renal, with MALME-3M melanoma, with UO-31 renal, with HOP-62 NSCLC, in the test with RXF 393 renal and in the test on HL-60(TB) leukemia was over 100 µM each time. Moreover, the TGI in the test on HCT-116 colon, in the test on UACC-257 melanoma, with K-562 leukemia, with NCI-H460 lung, in the test on OVCAR-4 ovarian and in the test on ACHN renal was over 100 µM throughout.

On to `O=c1c2ccccc2ncn1COCc1ccccc1`, for which the TGI in the test with 786-0 renal, in the test with UO-31 renal, with MCF7 breast, with NCI/ADR-RES ovarian, with RXF 393 renal and in the test on OVCAR-3 ovarian was over 100 µM each time. For the same molecule, the TGI in the test on SW-620 colon, with HL-60(TB) leukemia, with HCT-116 colon, with UACC-257 melanoma, in the test with DU-145 prostate and in the test on K-562 leukemia was over 100 µM throughout. The TGI in the test on OVCAR-4 ovarian and in the test on ACHN renal was over 100 µM each time.

As for `O=C(O)C(Cc1ccccc1)N=Cc1nc(-c2ccccc2)oc1O` (centres undefined), the TGI in the test with 786-0 renal, in the test on MALME-3M melanoma, with UO-31 renal, in the test on HOP-62 NSCLC, in the test on RXF 393 renal and in the test with OVCAR-3 ovarian was over 100 µM each time. In addition, the TGI in the test with SW-620 colon, with HL-60(TB) leukemia, with HCT-116 colon, in the test on UACC-257 melanoma, in the test on K-562 leukemia and with NCI-H460 lung was over 100 µM in each case. The TGI in the test on OVCAR-4 ovarian and in the test with ACHN renal was over 100 µM each time.

Take `Cc1ccc(NC(=O)C(=O)C2C(=O)NC(=O)NC2=O)c(C)c1`: the TGI in the test on 786-0 renal, in the test with MALME-3M melanoma, in the test with UO-31 renal, in the test with HOP-62 NSCLC, with RXF 393 renal and in the test on OVCAR-3 ovarian was over 100 µM in each case. Besides, the TGI in the test on SW-620 colon, in the test on HL-60(TB) leukemia, in the test on HCT-116 colon, with UACC-257 melanoma, in the test with K-562 leukemia and in the test with NCI-H460 lung was over 100 µM each time. Moreover, the TGI in the test on OVCAR-4 ovarian and with ACHN renal was over 100 µM each time.
